Each molecule was assayed against GLP-1R (Homo sapiens, UniProt P43220) (assay: GLP-1R Activation - cAMP Assay). Conditions: […]; each compound run on one of the two cAMP assays (Assay 1 or Assay 2, not specified).
Type: cell-based
Experimental: GLP-1R Activation—cAMP Assay 1
GLP-1R activation by compounds of the present disclosure were quantified by measuring cAMP increase in CHO cells stably expressing GLP-1R (MultiSpan product #C1267-1a). The cells were harvested and plated in growth medium (DMEM/F-12 (Corning product #10-090-CV) supplemented with 10% FBS (HyClone product #SH30071-03), penicillin/streptomycin (Corning product #30-002CI) and 10 μg/ml puromycin (Gibco product #A11138-03)) at 1,000 cells/well in a 384-well plate (Greiner product #781080). The cells were then incubated overnight at 37° C., 5% CO2. The next day, the medium was removed and the cells were washed with DPBS (Corning product #21-031-CM) before adding the assay medium (HBSS, Corning product #21-023-CV) with 20 mM Hepes (Gibco product #15630-080) and 0.1% BSA (Rockland Immunochemicals product #BSA-1000)). Following the medium change, the cells were incubated for 1 hour at 37° C., 5% CO2. The tested GLP-1 compound was added to the cells in a 10-point dose response followed by a 30 minutes incubation at 37° C., 5% CO2. cAMP concentration increase was then detected using Cisbio's cAMP Gs Dynamic Kit (product #62AM4PEC) according to the manufacturer's protocol. The response was plotted against the log of the agonist concentration and fitted to a sigmoidal equation to determine the EC50.

Sequence of GLP-1R (P43220 24-463): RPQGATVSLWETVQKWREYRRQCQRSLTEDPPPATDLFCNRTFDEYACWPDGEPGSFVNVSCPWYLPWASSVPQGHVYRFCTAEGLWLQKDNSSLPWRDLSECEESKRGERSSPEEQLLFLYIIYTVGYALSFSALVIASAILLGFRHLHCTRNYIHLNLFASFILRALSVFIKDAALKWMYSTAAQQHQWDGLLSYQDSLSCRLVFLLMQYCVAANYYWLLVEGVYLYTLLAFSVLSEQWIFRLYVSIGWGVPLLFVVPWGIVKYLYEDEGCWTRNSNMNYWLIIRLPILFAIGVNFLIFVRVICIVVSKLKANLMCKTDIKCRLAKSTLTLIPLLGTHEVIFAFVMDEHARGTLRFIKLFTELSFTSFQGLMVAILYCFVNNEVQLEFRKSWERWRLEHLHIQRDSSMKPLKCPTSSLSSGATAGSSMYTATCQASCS

Structure (SMILES)	EC50 [nM]
CC(C)(C)OC(=O)N[C@@H]1COC[C@@H]1n1c(Cc2cc(F)c(-c3cccc(OCc4ccc(C#N)cc4F)n3)cc2F)nc2ccc(C(=O)O)cc21 (racemic) [Example 72, 1-((3R,4S)-4-((tert-butoxycarbonyl)amino)tetrahydrofuran-3-yl)-2-(4-(6-((4-cyano-2-fluorobenzyl)oxy)pyridin-2-yl)-2,5-difluorobenzyl)-1H-benzo[d]imidazole-6-carboxylic Acid]	37

Same assay, conditions: cAMP increase in CHO cells stably expressing GLP-1R; each compound run on one of the two cAMP assays (Assay 1 or Assay 2, not specified)

Structure (SMILES)	EC50 [nM]
C[C@H]1OCC[C@H]1n1c(Cc2cc(F)c(-c3cccc(OCc4ccc(C#N)cc4F)n3)cc2F)nc2ccc(C(=O)O)cc21 (racemic) [Example 73, 2-(4-(6-((4-cyano-2-fluorobenzyl)oxy)pyridin-2-yl)-2,5-difluorobenzyl)-1-((2R,3R)-2-methyltetrahydrofuran-3-yl)-1H-benzo[d]imidazole-6-carboxylic Acid]	2.4
CNC(=O)[C@@H]1COC[C@@H]1n1c(Cc2cc(F)c(-c3cccc(OCc4ccc(C#N)cc4F)n3)cc2F)nc2ccc(C(=O)O)cc21 (racemic) [Example 75, 2-(4-(6-((4-cyano-2-fluorobenzyl)oxy)pyridin-2-yl)-2,5-difluorobenzyl)-1-((3R,4S)-4-(methylcarbamoyl)tetrahydrofuran-3-yl)-1H-benzo[d]imidazole-6-carboxylic Acid]	15.6
CN(C)C(=O)[C@@H]1COC[C@@H]1n1c(Cc2cc(F)c(-c3cccc(OCc4ccc(C#N)cc4F)n3)cc2F)nc2ccc(C(=O)O)cc21 (racemic) [Example 76, 2-(4-(6-((4-cyano-2-fluorobenzyl)oxy)pyridin-2-yl)-2,5-difluorobenzyl)-1-((3R,4S)-4-(dimethylcarbamoyl)tetrahydrofuran-3-yl)-1H-benzo[d]imidazole-6-carboxylic Acid]	100
N#Cc1ccc(COc2cccc(-c3cc(F)c(Cc4nc5ccc(C(=O)O)cc5n4[C@@H]4COC[C@H]4F)cc3F)n2)c(F)c1 (racemic) [Example 77, 2-(4-(6-((4-cyano-2-fluorobenzyl)oxy)pyridin-2-yl)-2,5-difluorobenzyl)-1-((3R,4S)-4-fluorotetrahydrofuran-3-yl)-1H-benzo[d]imidazole-6-carboxylic Acid]	1.91
COC[C@H]1COC[C@H]1n1c(Cc2cc(F)c(-c3cccc(OCc4ccc(C#N)cc4F)n3)cc2F)nc2ccc(C(=O)O)cc21 (racemic) [Example 184, 2-(4-(6-((4-cyano-2-fluorobenzyl)oxy)pyridin-2-yl)-2,5-difluorobenzyl)-1-((3S,4S)-4-(methoxymethyl)tetrahydrofuran-3-yl)-1H-benzo[d]imidazole-6-carboxylic Acid]	0.157
N#Cc1ccc(COc2cccc(-c3cc(F)c(Cc4nc5ccc(C(=O)O)cc5n4C4COC[C@@H]4CO)cc3F)n2)c(F)c1 (mixture of isomers) [Example 216, 2-(4-(6-((4-cyano-2-fluorobenzyl)oxy)pyridin-2-yl)-2,5-difluorobenzyl)-1-((3S,4S)-4-(hydroxymethyl)tetrahydrofuran-3-yl)-1H-benzo[d]imidazole-6-carboxylic acid]	0.056
N#Cc1ccc(COc2cccc(-c3cc(F)c(Cc4nc5ccc(C(=O)O)cc5n4C4COC[C@H]4CO)cc3F)n2)c(F)c1 (mixture of isomers) [Example 217, 2-(4-(6-((4-cyano-2-fluorobenzyl)oxy)pyridin-2-yl)-2,5-difluorobenzyl)-1-((3S,4R)-4-(hydroxymethyl)tetrahydrofuran-3-yl)-1H-benzo[d]imidazole-6-carboxylic acid]	1.11
CO[C@@H]1COCC1n1c(Cc2cc(F)c(-c3cccc(OCc4ccc(C#N)cc4F)n3)cc2F)nc2c(F)cc(C(=O)O)cc21 (mixture of isomers) [Example 256, 2-(4-(6-((4-cyano-2-fluorobenzyl)oxy)pyridin-2-yl)-2,5-difluorobenzyl)-4-fluoro-1-((4S)-4-methoxytetrahydrofuran-3-yl)-1H-benzo[d]imidazole-6-carboxylic acid]	0.117
C[C@@H]1COC[C@H]1n1c(Cc2cc(F)c(-c3cccc(OCc4ccc(C#N)cc4F)n3)cc2F)nc2ccc(C(=O)O)cc21 (racemic) [Example 266, 2-(4-(6-((4-cyano-2-fluorobenzyl)oxy)pyridin-2-yl)-2,5-difluorobenzyl)-1-((3S,4S)-4-methyltetrahydrofuran-3-yl)-1H-benzo[d]imidazole-6-carboxylic acid]	0.363
N#Cc1ccc(COc2cccc(-c3cc(F)c(Cc4nc5ccc(C(=O)O)cc5n4[C@@H]4COC[C@@H]4C(F)F)cc3F)n2)c(F)c1 (racemic) [Example 267, 2-(4-(6-((4-cyano-2-fluorobenzyl)oxy)pyridin-2-yl)-2,5-difluorobenzyl)-1-((4R)-4-(difluoromethyl)tetrahydrofuran-3-yl)-1H-benzo[d]imidazole-6-carboxylic acid]	0.055
N#Cc1ccc(COc2cccc(-c3cc(F)c(Cc4nc5ccc(C(=O)O)cc5n4[C@@H]4COC[C@H]4C(F)F)cc3F)n2)c(F)c1 (racemic) [Example 269, 2-(4-(6-((4-cyano-2-fluorobenzyl)oxy)pyridin-2-yl)-2,5-difluorobenzyl)-1-((3S,4S)-4-(difluoromethyl)tetrahydrofuran-3-yl)-1H-benzo[d]imidazole-6-carboxylic acid]	0.164
CC12CC(n3c(Cc4cc(F)c(-c5cccc(OCc6ccc(C#N)cc6F)n5)cc4F)nc4ccc(C(=O)O)cc43)(CO1)C2 (racemic) [Example 270, 2-(4-(6-((4-cyano-2-fluorobenzyl)oxy)pyridin-2-yl)-2,5-difluorobenzyl)-1-((1s,4s)-1-methyl-2-oxabicyclo[2.1.1]hexan-4-yl)-1H-benzo[d]imidazole-6-carboxylic acid]	6090
N#Cc1ccc(COc2cccc(-c3cc(F)c(Cc4nc5ccc(C(=O)O)cc5n4C[C@@]45CO[C@@H](CCO4)C5)cc3F)n2)c(F)c1 (racemic) [Example 272, 1-(((5S)-2,6-dioxabicyclo[3.2.1]octan-1-yl)methyl)-2-(4-(6-((4-cyano-2-fluorobenzyl)oxy)pyridin-2-yl)-2,5-difluorobenzyl)-1H-benzo[d]imidazole-6-carboxylic acid]	2.11
O=C(O)c1ccc2nc(Cc3cc(F)c(-c4cccc(OCc5ccc(Cl)cc5F)n4)cc3F)n(C3COC4CC3C4)c2c1 (racemic) [Example 407, 1-((4R)-2-oxabicyclo[3.1.1]heptan-4-yl)-2-(4-(6-((4-chloro-2-fluorobenzyl)oxy)pyridin-2-yl)-2,5-difluorobenzyl)-1H-benzo[d]imidazole-6-carboxylic acid]	0.421
N#Cc1ccc(COc2cccc(-c3cc(F)c(Cc4nc5ccc(C(=O)O)cc5n4[C@@H]4COC[C@@H]4OC4CC4)cc3F)n2)c(F)c1 (racemic) [Example 411, 2-(4-(6-((4-cyano-2-fluorobenzyl)oxy)pyridin-2-yl)-2,5-difluorobenzyl)-1-((3R,4R)-4-cyclopropoxytetrahydrofuran-3-yl)-1H-benzo[d]imidazole-6-carboxylic acid]	1.33
N#Cc1ccc(COc2cccc(-c3cc(F)c(Cc4nc5ccc(C(=O)O)cc5n4[C@@H]4COC[C@@H]4OCC(F)F)cc3F)n2)c(F)c1 (racemic) [Example 412, 2-(4-(6-((4-cyano-2-fluorobenzyl)oxy)pyridin-2-yl)-2,5-difluorobenzyl)-1-((3R,4R)-4-(2,2-difluoroethoxy)tetrahydrofuran-3-yl)-1H-benzo[d]imidazole-6-carboxylic acid]	0.462
C[C@@H]1COC[C@@H]1n1c(Cc2cc(F)c(-c3cccc(OCc4ccc(C#N)cc4F)n3)cc2F)nc2ccc(C(=O)O)cc21 (racemic) [Example 505, 2-(4-(6-((4-cyano-2-fluorobenzyl)oxy)pyridin-2-yl)-2,5-difluorobenzyl)-1-((3R,4S)-4-methyltetrahydrofuran-3-yl)-1H-benzo[d]imidazole-6-carboxylic acid]	0.043
Cn1cc(-c2cc(F)c(COc3cccc(-c4cc(F)c(Cc5nc6ccc(C(=O)O)cc6n5[C@@H]5COCC5(C)C)cc4F)n3)cn2)cn1 (single isomer, unassigned) [Example 58]	0.58
COC[C@H]1COC[C@H]1n1c(Cc2cc(F)c(-c3cccc(OCc4ccc(C#N)cc4F)n3)cc2F)nc2ccc(C(=O)O)cc21 (single isomer, unassigned) [Example 176A]	0.085
COC[C@@H]1COC[C@@H]1n1c(Cc2cc(F)c(-c3cccc(OCc4ccc(C#N)cc4F)n3)cc2F)nc2ccc(C(=O)O)cc21 (single isomer, unassigned) [Example 176B]	0.748
N#Cc1ccc(COc2cccc(-c3cc(F)c(Cc4nc5ccc(C(=O)O)cc5n4[C@@H]4COC[C@@H]4C(F)F)cc3F)n2)c(F)c1 (single isomer, unassigned) [Example 233]	3.11
N#Cc1ccc(COc2cccc(-c3cc(F)c(Cc4nc5ccc(C(=O)O)cc5n4[C@H]4COC[C@H]4C(F)F)cc3F)n2)c(F)c1 (single isomer, unassigned) [Example 234]	0.448
CO[C@H]1COCC1n1c(Cc2cc(F)c(-c3cccc(OCc4ccc(C#N)cc4F)n3)cc2F)nc2c(F)cc(C(=O)O)cc21 (single isomer, unassigned) [Example 238]	0.1

— patent US12570642B2, “GLP-IR modulating compounds” (Gilead Sciences, Inc., priority 2021, dated 2026)
